Patent publication US6814969B2, “Immunologically significant herpes simplex virus antigens and methods for using same” (University of Washington, priority 2001, dated 2004)
Starred links: 1 amine or outer side, 2 acyl side, 3 side chain; linkers in the order of their positions; H or OH if unused. Positions of bridges follow the written chain, without caps; N, C: chain ends. Non-standard residues stand in square brackets, D forms with d. Residues, ends and D or L forms follow the SMILES beside them. Chains are numbered I, II in the order given. Actinocin(9to1) = Cc1c2oc3c(C)ccc(C(=O)[*:1])c3nc-2c(C(=O)[*:2])c(N)c1=O; NMeV = CN[C@H](C(=O)O)C(C)C; Sar = CNCC(=O)O

Columns and labels:
[1] = system: CD8 CTL clone 1874.1991.22; test: 51Cr release CTL assay, CD8 clone 1874.1991.22; format: cell-based, human; settings: autologous targets infected with wild-type HSV-2 in the presence of 5 μg/ml actinomycin D, E:T 20:1
[2] = system: CD8 CTL clone 5101.1999.23; test: 51Cr release CTL assay, CD8 clone 5101.1999.23; format: cell-based, human; settings: autologous targets infected with wild-type HSV-2 in the presence of 5 μg/ml actinomycin D, E:T 20:1
[3] = system: CD8 CTL clone 5491.2000.48; test: 51Cr release CTL assay, CD8 clone 5491.2000.48; format: cell-based, human; settings: autologous targets infected with wild-type HSV-2 in the presence of 5 μg/ml actinomycin D, E:T 20:1
CD4+ T cell clone = test: Reactivity with a CD4+ T cell clone (HLA DRBI*1501); format: cell-based, human; settings: in association with HLA class II molecule DRBI*1501
From the text: This epitope is recognized in association with the HLA class II molecule DRBI*1501, which is fairly prevalent in most human populations.

TCC BM.17 [4] = test: T-cell proliferation, TCC BM.17; format: cell-based, human; settings: VP16 1-492 at 1 μg/ml, β-gal-VP16 180-492 at 1:1,000, peptides at 1 μM
Experimental: (§1) Triplicate proliferation assay wells contained 10^4 cloned T-cells, 10^5 irradiated (3300 rad) PBMC or 2.5×10^4 irradiated (8000 rad) EBV-LCL as antigen presenting cells (APC), and antigen in 200 μl T-cell media (D. M. Koelle et al., 1997, Human. Immunol., 53:195-205) in 96-well U-bottom plates. When heat-killed bacteria were used as antigen, the equivalent of 10^5 cfu/well (prior to inactivation) was added and gentamicin (20 μg/ml) was included. After 72 hours, 1 μCi/well ^[3]H thymidine was added for 18 hours, cells were harvested, and incorporation of thymidine evaluated by liquid scintillation counting. Standard deviations were less than 10% of the mean values. Results are reported as mean cpm or as delta cpm=mean cpm for experimental antigen minus mean cpm for control antigen. Control antigen was mock-infected cell lysate for whole viral antigens and pUEX2-derived β-galactosidase for recombinant protein preparations. […]
(§2) Three epitopes within VP16, all HSV-2 type-specific were previously identified (K. R. Jerome et al., 1998, J. Virol., 72:436-441), and proliferative responses to full-length VP16 in bulk cultures of genital HSV-2 lesion-infiltrating lymphocytes from four of seven (57%) patients were detected (D. M. Koelle et al., 1998, J. Clin. Invest., 101:1500-09). […]

TCC SB.17 [5] = test: T-cell proliferation, TCC SB.17; format: cell-based, human; settings: VP16 1-492 at 1 μg/ml, β-gal-VP16 180-492 at 1:1,000, peptides at 1 μM
Experimental: as §1, §2

TCC BM.17 [6] = test: Cytolysis assay (4-hour 51Cr release), CD4 TCC BM.17; format: cell-based, human; settings: autologous EBV-LCL targets, HSV-2 infected or 1 μM peptide, E:T 20:1
Experimental: (§3) Cytolysis assays were performed in triplicate using 4-hour [^51]Cr release as described (D. M. Koelle et al., 1993, J. Clin. Invest., 91:961-968). […] W. Kwok et al., 1996,J. Exp. Med., 183:1253-1258). The effector to target ratio was 20:1. Spontaneous release was less than 28%.

TCC SB.17 [7] = test: Cytolysis assay (4-hour 51Cr release), CD4 TCC SB.17; format: cell-based, human; settings: autologous EBV-LCL targets, HSV-2 infected or 1 μM peptide, E:T 20:1
Experimental: as §3

B1 cell line = test: Proliferation of short-term HSV-specific B1 cell lines from seven HSV-2 infected adults; format: cell-based, human; settings: seven HSV-2 infected immunocompetent adults; positive = stimulation index >= 4.0
Experimental: For each subject, PBMC were isolated and plated at 2×10^6 cells/well in 2 mls of T-cell medium in 24-well plates and stimulated in vitro with a 1:500 dilution of UV-inactivated HSV-2 strain 333 for five days. At that time, 40 units/ml recombinant human IL-2 was added for an additional five to six days, giving rise to a short-term, HSV-specific cell line termed a B1 cell line.
Reactivity to individual HSV-2 proteins was assessed as follows. Proliferation assays were set up on 96-well round bottom microtiter plates, and each condition was performed in triplicate. To each well, 1×10^5 autologous irradiated (3300 rad gamma) PBMC were added as antigen presenting cells. To each well, 1×10^4 B1 cells were added. The following control substances were added: media, UV-treated mock virus preparation diluted 1:500, UV-treated HSV-2 strain 333 diluted 1:500, glycoproteins B or D or VP16 protein of HSV-2 (purified) at 4 micrograms per ml final concentration. The response to UV-treated HSV-2 was expected to be positive and served as a positive control for the viability and overall specificity of the cells. […]
Positive responses were scored if the stimulation index (mean cpm ^3H thymidine incorporation for test antigen/mean cpm ^3H thymidine incorporation for relevant control antigen) was greater than or equal to 4.0. […]

[8] = system: genital HSV-2 lesion-infiltrating lymphocytes; settings: four of seven patients; Koelle et al., 1998; cited from earlier work

Q: For `Cc1c2oc3c(C)ccc(C(=O)N[C@@H]4C(=O)N[C@H](C(C)C)C(=O)N5CCC[C@H]5C(=O)N(C)CC(=O)N(C)[C@@H](C(C)C)C(=O)O[C@@H]4C)c3nc-2c(C(=O)N[C@@H]2C(=O)N[C@H](C(C)C)C(=O)N3CCC[C@H]3C(=O)N(C)CC(=O)N(C)[C@@H](C(C)C)C(=O)O[C@@H]2C)c(N)c1=O` [actinomycin D] (I: T[dV]P[Sar][NMeV] / II: T[dV]P[Sar][NMeV]; ester I:1-I:C, II:1-II:C; linker I:N-II:N via Actinocin(9to1)), which percent specific release [1] is on record?
A: Its percent specific release is 45.1%.

Q: What about the percent specific release [2] of the same molecule?
A: Its percent specific release is 35.8%.

Q: And the percent specific release [3]?
A: Its percent specific release is 49.2%.

Q: With RLRELNHIREHLNLPLVRSA [VP16 288-307] as the molecule, how does the “reactivity with a CD4+ T cell clone” value (CD4+ T cell clone) read?
A: Its value is “reactivity”.

Q: For “VP16 437-449: HSV-2 VP16 (UL48) peptide, amino acids 437-449 (ADALDDFDLEMLG; UniProt P68336 437-449, looked up, fragment)”, which “delta cpm [3H] thymidine incorporation compared to media” value (TCC BM.17 [4]) is on record?
A: The value was 79,723 cpm.

Q: And the “delta cpm [3H] thymidine incorporation compared to media” value (TCC SB.17 [5])?
A: The value was 36,442 cpm.

Q: What about the percent specific release (TCC BM.17 [6]) of the same molecule?
A: Its percent specific release is 28.5%.

Q: And the percent specific release (TCC SB.17 [7])?
A: The percent specific release was 60.6%.

B1: VP16 of HSV-2: VP16 protein of HSV-2 (purified) (protein)
chain: MDLLVDDLFADADGVSPPPPRPAGGPKNTPAAPPLYATGRLSQAQLMPSPPMPVPPAALFNRLLDDLGFSAGPALCTMLDTWNEDLFSGFPTNADMYRECKFLSTLPSDVIDWGDAHVPERSPIDIRAHGDVAFPTLPATRDELPSYYEAMAQFFRGELRAREESYRTVLANFCSALYRYLRASVRQLHRQAHMRGRNRDLREMLRTTIADRYYRETARLARVLFLHLYLFLSREILWAAYAEQMMRPDLFDGLCCDLESWRQLACLFQPLMFINGSLTVRGVPVEARRLRELNHIREHLNLPLVRSAAAEEPGAPLTTPPVLQGNQARSSGYFMLLIRAKLDSYSSVATSEGESVMREHAYSRGRTRNNYGSTIEGLLDLPDDDDAPAEAGLVAPRMSFLSAGQRPRRLSTTAPITDVSLGDELRLDGEEVDMTPADALDDFDLEMLGDVESPSPGMTHDPVSYGALDVDDFEFEQMFTDAMGIDDFGG
Q: What does the source list for B1?
A: % (subjects with positive response) (B1 cell line): 0%; n (subjects with positive response) (B1 cell line): 0; patients with proliferative responses in bulk cultures of lesion-infiltrating lymphocytes [8]: 57%
